According to patent US6391890B1, “Heterocyclic compounds” (Novo Nordisk A/S, priority 1997, dated 2002):
Structures can show the parent of a compound that is named as a salt.

Legend:
[1] = system: histamine induced blood glucose rise; assay: Histamine induced hyperglycemia in mice; format: in vivo; details: 1.0 mg/kg ip 30 min before histamine icv, male NMRI mice, blood glucose at 40 min
Experimental: II. Histamine Induced Hyperglycemia in Mice
Conscious unfasted 25 g male NMRI mice are administered histamine chloride (90 nmol) icv according to the method of Nishibori et al. (J. Pharmacol. Exp. Therap. 241, 582-286,1987). Blood glucose is determined at time 0 and 40 min after the histamine injection. Test compounds are administered at 1.0 mg/kg ip 30 min before the histamine injection, and % inhibition refers to the capacity of the compounds to inhibit the histamine induced blood glucose rise.

[2] = system: histamine induced paw oedema; assay: Histamine induced paw oedema (rat, water plethysmography); format: in vivo; details: 1.0 mg/kg intraperitoneally, male Sprague-Dawley rats, paw swelling 20 minutes after histamine
Experimental: I. Histamine Induced Paw Oedema The rat histamine paw oedema test was performed essentially as described by Amann et al. (Europ. J. Pharmacol. 279, 227-231, 1995). In brief 250-300 g male Sprague-Dawley rats were anaesthetized with pentobarbital sodium, and placed on a 32 degree heated table. Ten minutes later histamine (50 micoliter, 3 mg/ml) was injected in the right hind paw and 20 minutes hereafter the paw swelling was determined by water plethysmography (Ugo Basile). Test compounds were administered intraperitoneally at 15 minutes before the anaesthetics.

## O=C(O)[C@@H]1CCCN(CCN2CCC(=C3c4ccccc4CSc4ccccc43)CC2)C1 (as salt: hydrochloride)
other
  melting point: 127 to 130 °C

## Cl.O=C(O)CN1CCC(=C2c3ccccc3CSc3ccccc32)CC1
other
  melting point: 170 to 175 °C

## Cl.O=C(O)CCN1CCC(=C2c3ccccc3CSc3ccccc32)CC1
other
  melting point: 176 to 186 °C (dec.)

## O=C(O)C1CCCN(CCCN2CCC(=C3c4ccccc4CSc4ccccc43)CC2)C1 (stereo not shown) (as salt: hydrochloride)
other
  melting point: 245 to 255 °C (dec.)

## Cl.O=C(O)CCN1CCC(=C2c3ccccc3CCc3ccccc32)CC1 [Example 10, 3-(4-(10,11-Dihydro-5H-dibenzo[a,d]cyclohepten-5-ylidene)-1-piperidine)propionic acid hydrochloride]
[1]
  Inhibition of histamine induced hyperglycemia, % inhibition: 69%
[2]
  Inhibition of histamine induced paw oedema, % inhibition: 33%

## Cl.O=C(O)CCN1CCN(C2c3ccccc3CCc3ccccc32)CC1 [Example 2, 3-(4-(10,11-Dihydro-5H-dibenzo[a,d]cyclohepten-5-yl)piperazin-1-yl)propionic acid hydrochloride]
[2]
  Inhibition of histamine induced paw oedema, % inhibition: 44%
